Laboratory results taken from PMC5824708 (EJNMMI Radiopharmacy and Chemistry, 2018).

Key:
[1] = system: dipeptidyl peptidase IV (DPP4); conditions: degradation by DPP4; ref Pauly et al. [1999]; cited from earlier work
Description: The glucagon-like peptide type 1 receptor (GLP-1R) is overexpressed in virtually all benign insulinoma with high incidence and density and is considered a valuable target for the efficient visualisation by radiotracers (Reubi and Waser [2003]; Wild et al. [2011]; Wild et al. [2008]; Korner et al. [2012]). The natural ligand released from ileal L-cells, glucagon-like peptide 1 (GLP-1) stimulates the insulin secretion in β-cells by binding to the GLP-1R.

[2] = system: CHL-GLP-1 tumor-bearing mouse; set-up: species or system mice; conditions: in vivo
Protocol: Animal studies complied with Swiss laws on animal protection and husbandry and were approved by the Veterinary office of the Canton Zurich. After an acclimatization period, tumor xenografts were produced in 6-week old female CD1 nu/nu mice by subcutaneous injection in both shoulder regions of CHL-GLP-1 receptor positive cells (8 × 10^6 cells/mouse in PBS (100 μL, pH 7.4)) under 2%–3% isoflurane anaesthesia. Ex vivo biodistribution experiments were conducted three weeks after the inoculation. PET imaging experiments were performed five weeks after the inoculation. Two tumor bearing mice were injected with ^18F-2 (13.0 MBq in 80 and 100 μL PBS containing ≤ 5% ethanol, 1.3 and 1.9 nmol) via lateral tail vein. Anaesthesia was induced with 5% isoflurane (Abbott) in O2/air 5 min before PET/CT acquisition. Depth of anaesthesia and temperature were controlled as described by Honer et al. (Honer et al. [2004]). PET/CT scans were performed under 2–3% isoflurane anaesthesia with a GE VISTA eXplore PET/CT tomograph. […] Standardized uptake values (SUV) were calculated as a ratio of tissue radioactivity concentration (kBq/cm^3) and injected activity dose per gram body weight (kBq/g) at the scan start. Percentage injected dose per gram of tissue (%ID/g) was calculated using SUV values: SUV / body weight [g] × 100% = %ID/g.

[3] = system: nude mice bearing CHL-GLP-1 receptor positive tumor xenografts; conditions: mouse, in vivo
Protocol: Animal studies complied with Swiss laws on animal protection and husbandry and were approved by the Veterinary office of the Canton Zurich. After an acclimatization period, tumor xenografts were produced in 6-week old female CD1 nu/nu mice by subcutaneous injection in both shoulder regions of CHL-GLP-1 receptor positive cells (8 × 10^6 cells/mouse in PBS (100 μL, pH 7.4)) under 2%–3% isoflurane anaesthesia. Ex vivo biodistribution experiments were conducted three weeks after the inoculation. PET imaging experiments were performed five weeks after the inoculation.
Tumor-bearing mice (n = 12) were injected intravenously with ^18F-2 (200 kBq in 100 μL PBS, 1.3 pmol, 5.9 ng). The animals were sacrificed at 30 min, 1 h and 2 h post injection (n = 4 for each time point). To determine specific binding an additional group of tumor-bearing mice (n = 4) received nonradioactive precursor 1 (100 μg in 100 μL PBS, 22 nmol) co-injected with ^18F-2 (266 kBq in 100 μL PBS, 1.7 pmol, 7.8 ng) and were sacrificed 1 h post injection. Organs and tissues of interest were collected and weighed, and the amount of radioactivity was determined in a γ-counter (1480 Wizard, PerkinElmer) to calculate percentage uptake (% injected dose per gram of tissue). Statistical significance was calculated using Student t-test (two populations, unpaired). P values of less than 0.05 were considered statistically significant.

Row | Tumor to background ratio [2] | tumor to blood ratio [3] | Substance | metabolic half-life [1]
1 | – | – | GLP-1: natural ligand of GLP-1R released from ileal L-cells | less than 2 min
2 | ~ 3 | 4 ± 2 | His-Gly-Glu-Gly-Thr-Phe-Thr-Ser-Asp-Leu-Ser-Lys-Gln-Nle-Glu-Glu-Glu-Ala-Val-Arg-Leu-Phe-Ile-Glu-Trp-Leu-Lys-Asn-Gly-Gly-Pro-Ser-Ser-Pro-Ala-Pro-Pro-Pro-Ser-Lys-(N ^6 –2-(4-(di-tert-butylfluorosilyl)phenyl)acetyl)-NH 2 [^18F-2] | –
